Results as given in US20040219602A1, “Evaluating effects of exposure conditions on drug samples over time” (Symyx Technologies, Inc., priority 2003, published 2004).

Key:
Format in all cases: physicochemical
[1] = FT-Raman of solid drug samples exposed to 80° C. (thermal stability); conditions: heated for 216 hours at 80° C. vs unexposed
From the text: The change in FT-Raman signal is used to measure the rate of drug decomposition and the chemical stability of the drug candidate.

[2] = Fluorescence emission of solid drug samples exposed to 80° C. (thermal stability); conditions: oven at 80° C., 15 and 41 hours vs unexposed, Renishaw Raman Spectrometer
Protocol: In the following examples, drug candidate stability is evaluated using non-destructive tests to track any change in property over time while exposed to a condition. Fluorescence, Raman, powder X-ray diffraction, near-IR, mid-IR, UV-Vis absorbance, and colorimetry are used. A change in the peak intensity for these tests is measured for the samples before exposure and during exposure.
Two 20 ml vials containing approximately 10 mg each of Amoxicillin, two 20 ml vials containing approximately 10 mg each of Ampicillin trihydrate and two 20 ml vials containing approximately 10 mg each of Caphalexin hydrate were prepared and placed in an oven at 80° C. One vial of each compound was removed from the oven after 15 hours of exposure, and the other vial of each compound was removed from the oven after 41 hours. Approximately 2 mg samples from each of the vials were placed in discreet regions of a Universal ⋄ Substrate™. Approximately 2 mg of unexposed Amoxicillan, Ampicillin trihydrate and Cephalexil hydrate were also placed in discreet regions of the Universal ⋄ Substrate™. The Raman scattering response and the fluorescence emission response of the samples were measured using a Renishaw Raman Spectrometer.

[3] = Powder X-ray diffraction of exposed and unexposed drug sample (thermal stability, crystallinity); conditions: solid, oven 216 hours at 100 C vs unexposed
Protocol: Approximately 2 mg of Amoxicillin was placed on a Universal ⋄ Substrate™ and exposed in an oven for 216 hours at 100 C. After the sample was removed from the oven, approximately 2 mg of unexposed sample was also on the placed on the Universal ⋄ Substrate™. The X-ray powder diffraction (XRD) patterns for the exposed and unexposed samples were collected on a Bruker D-8 C2 X-ray diffractometer.

change of FT-Raman spectrum after heating [1]	amplitude of the fluorescence emission as a function of heating time [2]	crystallinity (powder diffraction intensity) after exposure [3]	SMILES
changes significantly	increased significantly	almost completely lost	CC1(C)S[C@@H]2[C@H](NC(=O)[C@H](N)c3ccc(O)cc3)C(=O)N2[C@H]1C(=O)O [Amoxicillin]
–	increased significantly	–	CC1(C)S[C@@H]2[C@H](NC(=O)[C@H](N)c3ccccc3)C(=O)N2[C@H]1C(=O)O [Ampicillin trihydrate]
–	increased significantly	–	CC1=C(C(=O)O)N2C(=O)[C@@H](NC(=O)[C@H](N)c3ccccc3)[C@H]2SC1 [Cephalexin hydrate]
